Results taken from patent US12304890B2, “R-type pyridyloxycarboxylic acid, salt and ester derivative thereof, and preparation method therefor, and herbicidal composition and application thereof” (Qingdao Kingagroot Chemical Compound Co., Ltd., priority 2018, dated 2025).

Assays:
Assay type in all cases: in vivo
[1] = tested on: rice; assay: Post-emergence test experiment, rice (crop selectivity); conditions: 3 weeks
Description: (§1) The above described growth inhibition rate is fresh weight inhibition rate.
(§2) Post-emergence test experiment: Monocotyledonous and dicotyledonous weed seeds and main crop seeds (i. e. wheat, corn, rice, soybean, cotton, oilseed, millet and sorghum.) were put into a plastic pot loaded with soil. Then covered with 0.5-2 cm soil, the seeds were allowed to grow in good greenhouse environment. The test plants were treated at 2-3 leaf stage 2 weeks after sowing. The test compounds of the invention were dissolved with acetone respectively, then added with tween-80, and using 1.5 liters per hectare of an emulsible concentrate of methyl oleate as a synergist, and diluted by certain amount of water to certain concentration. The solution was sprayed to the plants with a sprayer. Then the plants were cultured for 3 weeks in the greenhouse, and the experiment result of weed controlling effect was listed in tables 4-5.

[2] = tested on: Monocotyledonous and dicotyledonous weed seeds and main crop seeds; assay: Post-emergence test experiment, other weeds and crops (Table 4, 1000 g a.i./ha); conditions: 3 weeks in greenhouse, fresh weight inhibition
How it was run: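 Growth inhibition is scored on fresh weight. Spray solutions were made in acetone with tween-80, diluted in water, plus 1.5 L/ha methyl oleate emulsible concentrate. Plants from greenhouse-grown weed and crop seeds were treated post-emergence at 2-3 leaves, 2 weeks after sowing.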

[3] = tested on: Semen Euphorbiae Lathyridis; assay: Post-emergence test experiment, Semen Euphorbiae Lathyridis; conditions: 3 weeks
Description: as §1, §2

[4] = tested on: rice (japonica rice); assay: Transplanted rice safety evaluation; conditions: transplanted 3-leaf japonica rice, 1000 g a.i./ha, 21 days after treatment
Description: In addition, the rice field soil that loaded into the 1/1,000,000 ha pot was leveled to keep water storage at 3-4 cm depth. The 3-leaf stage rice (japonica rice) was transplanted at 3 cm of transplanting depth the next day. The compound of the present invention was treated by the same way after 5 days of transplantation.
(§3) The fertility condition of Monochoria vaginalis 14 days and rice 21 days after the treatment of the compound of the invention with the naked eye.

[5] = tested on: Digitaria sanguinalis; assay: Post-emergence test experiment, Digitaria sanguinalis; conditions: for Activity level (growth inhibition rate), Digitaria sanguinalis: 1000 g a.i./ha, 3 weeks in greenhouse, fresh weight inhibition
How it was run: (§4)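 Seeds sown under 0.5-2 cm soil; sprayed post-emergence at 2-3 leaves with acetone/tween-80 solution plus 1.5 L/ha methyl oleate EC; greenhouse 3 wk; % fresh weight inhibition.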

[6] = tested on: Monochoria vaginalis; assay: Weed control effect evaluation in rice field; conditions: paddy pot, 0.5 leaf stage, 14 days, weed resistant to pyrazosulfuron-ethyl and penoxsulam
Description: Rice field soil was loaded into a 1/1,000,000 ha pot. The seeds of Monochoria vaginalis were sowed and gently covered with soil, then left to stand still in greenhouse in the state of 0.5-1 cm of water storage. It was kept at 3-4 cm of water storage thereafter. The weeds were treated by dripping the WP or SC water diluents prepared according to the common preparation method of the compounds of the present invention with pipette homogeneously to achieve specified effective amount when Monochoria vaginalis reached 0.5 leaf stage.
as §3

[7] = tested on: Echinochloa crusgalli; assay: Post-emergence test experiment, Echinochloa crusgalli; conditions: for Activity level (growth inhibition rate), Echinochloa crusgalli: 1000 g a.i./ha, 3 weeks in greenhouse, fresh weight inhibition
How it was run: as §4

[8] = 200 g a.i./ha, weed resistant to cyhalofop-butyl
[9] = 200 g a.i./ha, 3 weeks, weed resistant to cyhalofop-butyl
[10] = 200 g a.i./ha, 3 weeks, weed resistant to ALS inhibitor and ACCe herbicides
[11] = 100 g a.i./ha, 3 weeks, resistant weed
[12] = 400 g a.i./ha, 3 weeks, resistant weed

SMILES: COC(=O)[C@@H](C)Oc1nc(F)c(Cl)c(N)c1Cl [Compound 2-69]
- rice, activity level (growth inhibition rate) ([1]; 200 g a.i./ha): 0 (Level 0: the growth inhibition rate is less than 5%)
- Activity level (growth inhibition rate), Abutilon theophrasti Medic. [2]: 5 (Level 5: the growth inhibition rate is greater than 85%)
- Activity level (growth inhibition rate), Galium aparine [2]: 5 (Level 5: the growth inhibition rate is greater than 85%)
- Activity level (growth inhibition rate), Monochoria Vaginalis [2]: 5 (Level 5: the growth inhibition rate is greater than 85%)
- inhibition at 200 g/ha ([3]; 504 h, 200 g a.i./ha, weed resistant to cyhalofop-butyl, read-out: Semen Euphorbiae Lathyridis, activity level (growth inhibition rate)): > 85%
- rice, safety level 0-5 [4]: 0 (Level 0: the growth inhibition rate is less than 5%)
- Activity level (growth inhibition rate), Digitaria sanguinalis [5]: 5 (Level 5: the growth inhibition rate is greater than 85%)
- inhibition at 200 g/ha ([5]; Digitaria sanguinalis, 504 h, 200 g a.i./ha, 3 weeks, weed resistant to cyhalofop-butyl, read-out: Digitaria sanguinalis, activity level (growth inhibition rate)): > 85%
- Monochoria Vaginalis, activity level 0-5 ([6]; 1000 g a.i./ha): 5 (Level 5: the growth inhibition rate is greater than 85%)
- Activity level (growth inhibition rate), Echinochloa crusgalli [7]: 5 (Level 5: the growth inhibition rate is greater than 85%)
- inhibition at 200 g/ha ([7]; Echinochloa crus-galli, 504 h, 200 g a.i./ha, 3 weeks, weed resistant to ALS inhibitor and ACCe herbicides, read-out: Echinochloa crusgalli, activity level (growth inhibition rate)): > 85%

SMILES: CSC(=O)[C@@H](C)Oc1nc(F)c(Cl)c(N)c1Cl [Compound 2-70]
- rice, activity level (growth inhibition rate) ([1]; 200 g a.i./ha): 0 (Level 0: the growth inhibition rate is less than 5%)
- Activity level (growth inhibition rate), Abutilon theophrasti Medic. [2]: 5 (Level 5: the growth inhibition rate is greater than 85%)
- Activity level (growth inhibition rate), Galium aparine [2]: 5 (Level 5: the growth inhibition rate is greater than 85%)
- Activity level (growth inhibition rate), Monochoria Vaginalis [2]: 5 (Level 5: the growth inhibition rate is greater than 85%)
- Semen Euphorbiae Lathyridis, activity level (growth inhibition rate) [3, 8]: 5 (Level 5: the growth inhibition rate is greater than 85%)
- rice, safety level 0-5 [4]: 0 (Level 0: the growth inhibition rate is less than 5%)
- Digitaria sanguinalis, activity level (growth inhibition rate) [5, 9]: 5 (Level 5: the growth inhibition rate is greater than 85%)
- Activity level (growth inhibition rate), Digitaria sanguinalis [5]: 5 (Level 5: the growth inhibition rate is greater than 85%)
- Monochoria Vaginalis, activity level 0-5 ([6]; 1000 g a.i./ha): 5 (Level 5: the growth inhibition rate is greater than 85%)
- Echinochloa crusgalli, activity level (growth inhibition rate) [7, 10]: 5 (Level 5: the growth inhibition rate is greater than 85%)
- Activity level (growth inhibition rate), Echinochloa crusgalli [7]: 5 (Level 5: the growth inhibition rate is greater than 85%)

SMILES: C[C@@H](Oc1nc(F)c(Cl)c(N)c1Cl)C(=O)OCCCC(F)(F)F [Compound 2-280]
- rice, activity level (growth inhibition rate) ([1]; 200 g a.i./ha): 0 (Level 0: the growth inhibition rate is less than 5%)
- Activity level (growth inhibition rate), Abutilon theophrasti Medic. [2]: 5 (Level 5: the growth inhibition rate is greater than 85%)
- Activity level (growth inhibition rate), Galium aparine [2]: 5 (Level 5: the growth inhibition rate is greater than 85%)
- Activity level (growth inhibition rate), Monochoria Vaginalis [2]: 5 (Level 5: the growth inhibition rate is greater than 85%)
- Semen Euphorbiae Lathyridis, activity level (growth inhibition rate) [3, 8]: 5 (Level 5: the growth inhibition rate is greater than 85%)
- Digitaria sanguinalis, activity level (growth inhibition rate) [5, 9]: 5 (Level 5: the growth inhibition rate is greater than 85%)
- Activity level (growth inhibition rate), Digitaria sanguinalis [5]: 5 (Level 5: the growth inhibition rate is greater than 85%)
- Echinochloa crusgalli, activity level (growth inhibition rate) [7, 10]: 5 (Level 5: the growth inhibition rate is greater than 85%)
- Activity level (growth inhibition rate), Echinochloa crusgalli [7]: 5 (Level 5: the growth inhibition rate is greater than 85%)

SMILES: CC(Oc1nc(F)c(Cl)c(N)c1Cl)C(=O)OCCN(C)C (stereo not drawn) [Compound 2-283]
- rice, activity level (growth inhibition rate) ([1]; 200 g a.i./ha): 0 (Level 0: the growth inhibition rate is less than 5%)
- Activity level (growth inhibition rate), Abutilon theophrasti Medic. [2]: 5 (Level 5: the growth inhibition rate is greater than 85%)
- Activity level (growth inhibition rate), Galium aparine [2]: 5 (Level 5: the growth inhibition rate is greater than 85%)
- Activity level (growth inhibition rate), Monochoria Vaginalis [2]: 5 (Level 5: the growth inhibition rate is greater than 85%)
- Semen Euphorbiae Lathyridis, activity level (growth inhibition rate) [3, 8]: 5 (Level 5: the growth inhibition rate is greater than 85%)
- Digitaria sanguinalis, activity level (growth inhibition rate) [5, 9]: 5 (Level 5: the growth inhibition rate is greater than 85%)
- Activity level (growth inhibition rate), Digitaria sanguinalis [5]: 5 (Level 5: the growth inhibition rate is greater than 85%)
- Echinochloa crusgalli, activity level (growth inhibition rate) [7, 10]: 5 (Level 5: the growth inhibition rate is greater than 85%)
- Activity level (growth inhibition rate), Echinochloa crusgalli [7]: 5 (Level 5: the growth inhibition rate is greater than 85%)

SMILES: CC(C)=NOCCOC(=O)C(C)Oc1nc(F)c(Cl)c(N)c1Cl (stereo not drawn) [Compound 2-287]
- rice, activity level (growth inhibition rate) ([1]; 200 g a.i./ha): 0 (Level 0: the growth inhibition rate is less than 5%)
- Activity level (growth inhibition rate), Abutilon theophrasti Medic. [2]: 5 (Level 5: the growth inhibition rate is greater than 85%)
- Activity level (growth inhibition rate), Galium aparine [2]: 5 (Level 5: the growth inhibition rate is greater than 85%)
- Activity level (growth inhibition rate), Monochoria Vaginalis [2]: 5 (Level 5: the growth inhibition rate is greater than 85%)
- Semen Euphorbiae Lathyridis, activity level (growth inhibition rate) [3, 8]: 5 (Level 5: the growth inhibition rate is greater than 85%)
- Digitaria sanguinalis, activity level (growth inhibition rate) [5, 9]: 5 (Level 5: the growth inhibition rate is greater than 85%)
- Activity level (growth inhibition rate), Digitaria sanguinalis [5]: 5 (Level 5: the growth inhibition rate is greater than 85%)
- Echinochloa crusgalli, activity level (growth inhibition rate) [7, 10]: 5 (Level 5: the growth inhibition rate is greater than 85%)
- Activity level (growth inhibition rate), Echinochloa crusgalli [7]: 5 (Level 5: the growth inhibition rate is greater than 85%)

SMILES: CC(Oc1nc(F)c(Cl)c(N)c1Cl)C(=O)OCC1CCCO1 (stereo not drawn) [Compound 2-298]
- rice, activity level (growth inhibition rate) ([1]; 100 g a.i./ha): 0 (Level 0: the growth inhibition rate is less than 5%)
- rice, activity level (growth inhibition rate) ([1]; 400 g a.i./ha): 1 (Level 1: the growth inhibition rate is equal to or greater than 5% and less than 20%)
- Activity level (growth inhibition rate), Abutilon theophrasti Medic. [2]: 5 (Level 5: the growth inhibition rate is greater than 85%)
- Activity level (growth inhibition rate), Galium aparine [2]: 5 (Level 5: the growth inhibition rate is greater than 85%)
- Activity level (growth inhibition rate), Monochoria Vaginalis [2]: 5 (Level 5: the growth inhibition rate is greater than 85%)
- Semen Euphorbiae Lathyridis, activity level (growth inhibition rate) ([3]; 100 g a.i./ha, resistant weed): 5 (Level 5: the growth inhibition rate is greater than 85%)
- Semen Euphorbiae Lathyridis, activity level (growth inhibition rate) [3, 8]: 5 (Level 5: the growth inhibition rate is greater than 85%)
- Semen Euphorbiae Lathyridis, activity level (growth inhibition rate) ([3]; 400 g a.i./ha, resistant weed): 5 (Level 5: the growth inhibition rate is greater than 85%)
- Digitaria sanguinalis, activity level (growth inhibition rate) [5, 11]: 5 (Level 5: the growth inhibition rate is greater than 85%)
- Digitaria sanguinalis, activity level (growth inhibition rate) [5, 9]: 5 (Level 5: the growth inhibition rate is greater than 85%)
- Digitaria sanguinalis, activity level (growth inhibition rate) [5, 12]: 5 (Level 5: the growth inhibition rate is greater than 85%)
- Activity level (growth inhibition rate), Digitaria sanguinalis [5]: 5 (Level 5: the growth inhibition rate is greater than 85%)
- Echinochloa crusgalli, activity level (growth inhibition rate) [7, 11]: 4 (Level 4: the growth inhibition rate is equal to or greater than 60% and less than 85%)
- Echinochloa crusgalli, activity level (growth inhibition rate) [7, 10]: 5 (Level 5: the growth inhibition rate is greater than 85%)
- Echinochloa crusgalli, activity level (growth inhibition rate) [7, 12]: 5 (Level 5: the growth inhibition rate is greater than 85%)
- Activity level (growth inhibition rate), Echinochloa crusgalli [7]: 5 (Level 5: the growth inhibition rate is greater than 85%)

SMILES: COc1cnc(OC)n2nc(NS(=O)(=O)c3c(OCC(F)F)cccc3C(F)(F)F)nc12 [penoxsulam, reference compound]
- Monochoria Vaginalis, activity level 0-5 ([6]; 50 g a.i./ha): 1 (Level 1: the growth inhibition rate is equal to or greater than 5% and less than 20%)
